Results published in patent US4031205A, “Method for treating nervous bladder” (priority 1975, dated 1977).

Experiments:
[1] = tested on: mice of ICR-JCL strain; assay: Acute toxicity test in mice; conditions: for Maximum dose (no case of deaths): single dose, 7 days observation
Source text: (§1) In order to evaluate the acute toxicity of a single high dose administration of Ubiquinone 10(CoQ10), male and female rats of Wistar strain and male and female mice of ICR-JCL strain were used, and oral, intramuscular, subcutaneous, and intravenous administrations were studied. For the oral administration of Ubiquinone 10(CoQ10), gum Arabic suspension was used. For the intramuscular, subcutaneous, and intravenous administrations, Ubiquinone 10(CoQ10) is used as its solution in surfactant, hydrogenated castor oil ethylene oxide addition product (HCO-60).
(§2) Observation was carried out for 7 days, by using six males and six females for each dose group.

[2] = tested on: rats; assay: Teratogenesis test in rats; format: in vivo, rat; conditions: 6, 60, and 600 mg/Kg/day
[3] = tested on: rats of Wistar strain; assay: Acute toxicity test in rats; conditions: for Maximum dose (no case of deaths): single dose, 7 days observation
Source text: as §1, §2

[4] = tested on: mice; assay: Teratogenesis test in mice; format: in vivo, mouse; conditions: 6, 60, and 600 mg/Kg/day
[5] = tested on: rats of Wistar strain; assay: Subacute toxicity test in rats
Procedure: (§4) Ubiquinone 10(CoQ10) was compulsorily and orally administered every day for 5 weeks to each group consisting of 10 male rats and 10 female rats of Wistar strain. The dose was 40, 200, and 1000 mg/Kg/day, respectively. Ubiquinone 10(CoQ10) was used in the form of gum Arabic suspension, while the solution containing gum Arabic alone was used as the control group. Collection of blood and urine samples and autopsies were carried out 5 weeks after the initiation of administration.

[6] = Physical and chemical properties: solubility; format: physicochemical
Source text: Ubiquinone n, for example, Ubiquinone 10(CoQ10), can be mainly obtained synthetically, though it is possible to extract the Ubiquinone from animal organs. Physical and chemical properties of Ubiquinone 10(CoQ10) produced synthetically are as follows.

[7] = in vivo
Source text: as §1, §2
The dose was 40, 200, and 1000 mg/Kg/day, respectively.
(§3) Ubiquinone 10(CoQ10) was compulsorily and orally administered every day for 23 days to each group consisting of six male rabbits and five female rabbits. […] On the 24th day, blood samples were collected from all the animals, and three males and two females from each group were then selectively autopsied.

[8] = tested on: rabbits; assay: Subacute oral toxicity test in rabbits
Source text: as §3

[9] = tested on: rats of Wistar strain; conditions: rat, in vivo, po
Procedure: as §4

[10] = tested on: rats of Wistar strain; assay: Chronic oral toxicity test
Procedure: Ubiquinone 10(CoQ10) was compulsorily and orally administered to each group consisting of 10 male rats and 10 female rats of Wistar strain for consecutive 26 weeks in a ratio of 6 days a week. The dose was 6, 60 and 600 mg/Kg/day, respectively. ubiquinone 10(CoQ10) was used in the form of gum Arabic suspension, whereas the solution containing gum Arabic alone is used as the control group. Collection of blood and urine samples and autopsies were carried out 26 weeks after the administration.

[11] = Clinical test: effectiveness of Ubiquinone 10(CoQ10) for nervous bladder; format: in vivo, human; design: Pressure curve Volume: unit not given beside the values; Residual urine / Urethral R. (Resistance): unit not given here
Procedure: Six patients compalining of dysuria and incontinentia urinac due to nervous bladder were made sujects. Case 1 was nocturnal enuresis of unknown cause, Cases 2-4 were impairement of root of spinal nerve (nuclear type), and Cases 5 and 6 were spinal impairements (supra nuclear type).
Hard capsules containing 5 mg of Ubiquinone 10(CoQ10) in the present invention were orally administered.
The dose of 1-3 capsules each time was orally administered 3 times a day after meals for consecutive 3-4 weeks as a rule. Depending on cases, 10 mg of Ubiquinone 10(CoQ10) was concurrently injected. The measurement of bladder functions, that is, the measurement of the pressure curve in the bladder, was carried out in accordance with any conventional method. However, the quantitative bladder crystometrographic curve (BR) was obtained by a modified method for the crystometry. More particularly, the curve was prepared by observing the condition of weak autonomic rhythmical contraction of the bladder wall, when the sensitivity and the recording rate of a crystometer were risen after the infusion of a certain amount of the solution.

[12] = 6, 60, 600 mg/Kg/day oral, 23 days
[13] = 6, 60, 600 mg/Kg/day oral, 26 weeks
[14] = spontaneous pneumonia and aspiration pneumonia due to erroneous administration, group not stated
[15] = Case 1, 20 days with 3 capsules
[16] = Case 1, 20 days with 3 capsules, After (Before: +)
[17] = Case 2, 30 days with 3 OR 20 days with 4 capsules
[18] = Case 3, 30 days with 1 OR 3 capsules
[19] = Case 4, 30 days with 3 capsules
[20] = Case 5, 50 days with 1 capsule, After (Before: ++)
[21] = Case 6, 30 days with 3 capsules

For `COC1=C(OC)C(=O)C(CC=C(C)CCC=C(C)CCC=C(C)CCC=C(C)CCC=C(C)CCC=C(C)CCC=C(C)CCC=C(C)CCC=C(C)CCC=C(C)C)=C(C)C1=O` [Ubiquinone 10(CoQ10)], the deaths ([1]; mice, at the maximum dose in each administration route) was “no case of deaths”, the “Maximum dose (no case of deaths)” value ([1]; mice, intramuscular) was 500 mg/kg and the “Maximum dose (no case of deaths)” value ([1]; mice, intravenous) was 250 mg/kg. For the same molecule, the “Maximum dose (no case of deaths)” value ([1]; mice, oral) was 4000 mg/kg, the “Maximum dose (no case of deaths)” value ([1]; mice, subcutaneous) was 500 mg/kg and the LD50 ([1]; mice, maximum doses of Table 1) was “far higher than the maximum dose mentioned above”. For the same molecule, the “general condition, body weight, food intake and autopsy findings” value ([1]; mouse, in vivo) was “no change was recognized”, the “adverse effects in mothers, fetuses, and newborns” value [2] was “no adverse effects were noted” and the “general condition, body weight, food intake and autopsy findings” value ([3]; rat, in vivo) was “no change was recognized”. For the same molecule, the deaths ([3]; rats, at the maximum dose in each administration route) was “no case of deaths”, the “Maximum dose (no case of deaths)” value ([3]; rats, intramuscular) was 500 mg/kg and the “Maximum dose (no case of deaths)” value ([3]; rats, intravenous) was 250 mg/kg. For the same molecule, the “Maximum dose (no case of deaths)” value ([3]; rats, oral) was 4000 mg/kg, the “Maximum dose (no case of deaths)” value ([3]; rats, subcutaneous) was 500 mg/kg and the LD50 ([3]; rats, maximum doses of Table 1) was “far higher than the maximum dose mentioned above”. The “adverse effects in mothers, fetuses, and newborns” value [4] was “no adverse effects were noted”, the “dead animals during the experiment” value ([5]; spontaneous pneumonia and aspiration pneumonia due to error of administration, group not stated) was 4 and the “toxicity (overall)” value ([5]; subacute oral, 5 weeks) was “there was not recognized the toxicity”. The solubility ([6]; acetone) was “soluble”, the solubility ([6]; benzene) was “easily soluble” and the solubility ([6]; carbon tetrachloride) was “easily soluble”. The solubility ([6]; chloroform) was “easily soluble”, the solubility ([6]; ethanol) was “insoluble” and the solubility ([6]; ether) was “soluble”. The solubility ([6]; methanol) was “hardly soluble”, the solubility ([6]; water) was “hardly soluble” and the overall safety [7] was “a very safe drug, without side-effects”. The “general condition and increase of body weight vs control” value [8, 12] was “no difference”, the “weight of each organ” value [8, 12] was “no effect” and the “hematological test and biochemical test of blood” value ([8]; 6, 60, 600 mg/Kg/day oral, 23 days, 24th day) was “Abnormal findings were not obtained”. The “macroscopical and histological observation” value ([8]; hematoxylin.Eosine staining and liver fat staining, 23 days oral) was “abnormalities were not recognized”, the “electron-microscopic observation of liver (minute structure)” value ([8]; seventh, 14th and 24th days) was “there were not recognized abnormal findings” and the “toxicity (overall)” value ([8]; subacute oral, 23 days) was “there were not recognized the findings wherein the toxicity of Ubiquinone 10(CoQ10) will be suggested”. For the same molecule, the “macroscopical and histological observation” value [9] was “abnormality was not recognized”, the “biochemical tests of blood and urine vs control” value [10, 13] was “No significant change” and the body weight [10, 13] was “increased as same as that of the control group”. The weight of organ [10, 13] was “no significant increase and decrease”, the “general condition vs control” value ([10]; 6, 60, 600 mg/Kg/day oral, 6 days a week, 26 weeks) was “no difference” and the “toxicity (overall)” value ([10]; chronic oral, 26 weeks) was “no toxicity was observed”. The “macroscopical and histological observation vs control” value ([10]; hemoxylin.Eosine staining and liver fat staining, 26 weeks) was “abnormalities were not recognized”, the leukocytal percentages ([10]; some increase and decrease, not dose dependent, 26 weeks) was “within extent of physiological fluctuations” and the “animals died, females” value [10, 14] was 3. The “animals died, males” value [10, 14] was 11, the Residual urine ([11]; Case 1 (nocturnal enuresis), 20 days with 3 capsules, After (Before: 35)) was 5 and the “Effectiveness: Volume” value [11, 15] was “increased”. For the same molecule, the Evaluation [11, 15] was “Effective”, the “Urethral R. (Resistance)” value ([11]; Case 1, 20 days with 3 capsules, After (Before: 110)) was 100 and the “Pressure curve Volume” value ([11]; Case 1, 20 days with 3 capsules, After (Before: 295)) was 340. The “Basal Pressure BR” value [11, 16] was “Normal”, the “Basal Pressure SR” value [11, 16] was “Normal” and the Residual urine ([11]; Case 2 (spina bifida), 30 days with 3 capsules OR 20 days with 4 capsules, After (Before: 0)) was 0. The “Effectiveness: Volume” value [11, 17] was “increased”, the Evaluation [11, 17] was “Unchanged” and the “Urethral R. (Resistance)” value ([11]; Case 2, 30 days with 3 OR 20 days with 4 capsules, After (Before: 30)) was 33. The “Pressure curve Volume” value ([11]; Case 2, 30 days with 3 OR 20 days with 4 capsules, After (Before: 90)) was 110, the Residual urine ([11]; Case 3 (spina bifida), 30 days with 1 capsule OR 30 days with 3 capsules, After (Before: 75)) was 65 and the “Effectiveness: Curve” value [11, 18] was “improved”. For the same molecule, the “Effectiveness: Residual urine” value [11, 18] was “decreased”, the “Effectiveness: Volume” value [11, 18] was “increased” and the Evaluation [11, 18] was “Effective”. For the same molecule, the “Pressure curve Volume” value ([11]; Case 3, 30 days with 1 OR 3 capsules, After (Before: 150)) was 200, the Residual urine ([11]; Case 4 (spina bifida), 30 days with 3 capsules, After (Before: 95)) was 70 and the “Effectiveness: Anischuria” value [11, 19] was “improved”. The “Effectiveness: BR” value [11, 19] was “appeared”, the “Effectiveness: Volume” value [11, 19] was “increased” and the “Urethral R. (Resistance)” value ([11]; Case 4, 30 days with 3 capsules, After (Before: 45)) was 49. The “Pressure curve Volume” value ([11]; Case 4, 30 days with 3 capsules, After (Before: 130)) was 345, the “Basal Pressure BR” value ([11]; Case 4, 30 days with 3 capsules, After (Before: ±)) was “Normal” and the Residual urine ([11]; Case 5 (paraplegia), 50 days with 1 capsule, After (Before: 20)) was 0. The “Effectiveness: BR SR” value ([11]; Case 5, 50 days with 1 capsule) was “normalized”, the “Effectiveness: Curve” value ([11]; Case 5, 50 days with 1 capsule) was “improved” and the “Urethral R. (Resistance)” value ([11]; Case 5, 50 days with 1 capsule, After (Before: 76)) was 73. The “Pressure curve Volume” value ([11]; Case 5, 50 days with 1 capsule, After (Before: 240)) was 260, the “Basal Pressure BR” value [11, 20] was “Normal” and the “Basal Pressure SR” value [11, 20] was “Normal”. The “Pressure curve Volume” value ([11]; Case 6 (Myelitis Adhesiva), 30 days with 3 capsules, After (Before: 150)) was 150, the “Effectiveness: Curve” value [11, 21] was “improved” and the “Effectiveness: SR” value [11, 21] was “improved”. For the same molecule, the “Pressure curve Type” value ([11]; Case 6, 30 days with 3 capsules, After (Before: Reflex)) was “Reflex” and the “effective results and markedly effective results, number of cases” value ([11]; among the 6 cases) was 5 cases.
